Measured values: patent US12606544B2, “JAK1 selective kinase inhibitor” (DIZAL (JIANGSU) PHARMACEUTICAL CO., LTD., priority 2019, dated 2026)
pIC50: −log10 of the molar value. Read-outs that look alike come from different tables or passages of the source.

Experiments:
JAK1 = target: T1, JAK1 (Homo sapiens, UniProt P23458); experiment: Lance Ultra Kinase Assay, recombinant JAK1; format: biochemical; conditions: 5 mM ATP
T1 construct: purchased Carna Biosciences
Protocol: (§1) Recombinant JAK1, JAK2, JAK3 and TYK2 purchased from Carna Biosciences. The inhibition potency of compounds against JAK1, JAK2, JAK3 and TYK2 was assessed using Lance Ultra Kinase Assay.
(§2) In brief, recombinant kinases were pre-incubated in the presence or absence of compound at room temperature for 15 minutes. The reaction was initiated by the addition of 5 mM ATP and substrate peptide which could be phosphorylated by kinases in the reaction. After 60 minutes incubation, the reaction was stopped by the addition of the detection reagent mix containing EDTA. The fluorescence was measured at 615 nm and 665 nm, respectively with excitation wavelength at 320 nm. The calculated signal ratio of 665 nm/615 nm is proportional to the kinase activity.

[1] = Metabolic stability in rat hepatocytes; format: in vitro ADME; conditions: 1 μM compound, male rat hepatocytes
Protocol: (§3) Rat hepatocytes in male gender and human liver microsome were obtained from commercial vendors (e.g., BioreclamationIVT) and stored at −150° C. prior to use.
For metabolic stability assay with rat heptatocytes, vials of cryopreserved hepatocytes or microsome were removed from storage, ensured that vials remain at cryogenic temperatures. 1 μM of each test compound (in Acetonitrile; 0.01% DMSO) was incubated with 250 μL of hepatocyte cells (1×10^6 cells/ml) in a 96 deep well plate. […] 40 μL of supernatant was diluted to 200 μL with pure water and analyzed using LC-MS/MS.
In vitro hepatocyte clearance was estimated based on determination of elimination half-life (T1/2) of compounds disappearance from their initial concentrations. Peak area ratios of each compound (test or control) to IS was calculated. Ln (% Control) versus Incubation Time (min) curve was plotted, and the slope of a linear fitting line was calculated. Drug elimination rate constant k (min−1), T1/2 (min), and in vitro intrinsic clearance CLint (μL/min/E6) was calculated according to the following equations: k=−slope T1/2=0.693/k CLint=k/Chep Where Chep (cells×μL^−1) is the cell concentration in the incubation system.

phosphorylation of STAT6 = experiment: Cellular p-STAT6 assay, IL-13 stimulated THP-1 cells, flow cytometry; format: cell-based; conditions: IL-13 10 ng/ml, read-out: pSTAT6 IC50
Protocol: To detect phosphorylated STAT6 (pSTAT6), THP-1 cells were harvested by centrifugation at 250 g for 5 min and resuspended in assay medium (RPMI1640+10% FBS) to 2×10^5 cells/well. Test compounds were applied to assay plates in serial dilution from 1 μM to 0.3 nM in DMSO. THP-1 cells were incubated with serial diluted compounds for 60 min at room temperature, followed by stimulation of interleukin (IL-13, 10 ng/ml) for 30 min, fixed in Cytofix buffer (BD Biosciences), and permeabilized in 90% methanol on ice. PE anti-pSTAT6 (BD Biosciences) antibodies were stained for 60 min at room temperature before being analyzed by flow cytometry. In the assay the compounds were thus diluted and dose-response curves for inhibition of the signal determine the IC50 for the compounds.

JAK3 = target: T2, JAK3 (Homo sapiens, UniProt P52333); experiment: Lance Ultra Kinase Assay, recombinant JAK3; format: biochemical; conditions: 5 mM ATP
T2 construct: purchased Carna Biosciences
T2 sequence (P52333 1-1124): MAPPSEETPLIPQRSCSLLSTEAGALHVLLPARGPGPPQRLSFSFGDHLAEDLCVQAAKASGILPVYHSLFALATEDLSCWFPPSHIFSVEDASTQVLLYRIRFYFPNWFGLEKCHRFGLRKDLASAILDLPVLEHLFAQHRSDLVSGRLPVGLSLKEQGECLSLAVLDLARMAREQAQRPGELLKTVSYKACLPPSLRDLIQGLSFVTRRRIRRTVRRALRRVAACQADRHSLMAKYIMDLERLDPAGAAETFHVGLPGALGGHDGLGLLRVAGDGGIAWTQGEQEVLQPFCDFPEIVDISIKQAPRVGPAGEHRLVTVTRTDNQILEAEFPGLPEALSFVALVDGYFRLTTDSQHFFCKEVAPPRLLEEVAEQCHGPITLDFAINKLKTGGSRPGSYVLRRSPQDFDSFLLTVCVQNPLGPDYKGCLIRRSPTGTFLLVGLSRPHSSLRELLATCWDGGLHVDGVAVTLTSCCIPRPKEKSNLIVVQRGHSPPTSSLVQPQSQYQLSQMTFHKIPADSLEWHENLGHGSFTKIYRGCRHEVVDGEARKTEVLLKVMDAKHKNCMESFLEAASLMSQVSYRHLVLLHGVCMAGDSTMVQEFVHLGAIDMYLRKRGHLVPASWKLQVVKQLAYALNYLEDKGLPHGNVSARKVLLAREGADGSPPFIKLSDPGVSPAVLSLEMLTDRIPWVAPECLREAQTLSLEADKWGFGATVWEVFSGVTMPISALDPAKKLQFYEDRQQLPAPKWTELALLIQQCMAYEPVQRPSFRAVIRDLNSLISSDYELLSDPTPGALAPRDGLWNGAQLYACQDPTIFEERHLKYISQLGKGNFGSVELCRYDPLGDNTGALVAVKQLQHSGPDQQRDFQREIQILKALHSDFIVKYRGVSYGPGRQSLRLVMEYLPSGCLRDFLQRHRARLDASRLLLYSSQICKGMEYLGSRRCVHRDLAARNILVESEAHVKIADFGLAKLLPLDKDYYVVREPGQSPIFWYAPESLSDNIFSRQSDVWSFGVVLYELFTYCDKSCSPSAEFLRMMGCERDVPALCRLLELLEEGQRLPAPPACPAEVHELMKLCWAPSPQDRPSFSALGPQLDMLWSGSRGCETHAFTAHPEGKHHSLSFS
Protocol: as §1, §2

[2] = Metabolic stability in human liver microsome; format: in vitro ADME; conditions: 1 mg/mL microsomes, NADPH; for microsomal CLint at 1 μM: human, pooled human liver microsomes, pH 7.4, 1 μM compound
Protocol: as §3
For metabolic stability assay with human liver microsome, 1 μM of each test compound was incubated with 1 mg/mL of microsomes (Pooled HLM with 20 mg/ml protein cone) at 37° C. in 250 μL of buffer (100 mM phosphate buffer, pH-7.4) containing 1 mM NADPH solution. […] was quenched with 5 volumes chilled acetonitrile at different time points 0, 0.5, 5, 10, 15, 20 and 30 min in a fresh 96 well plate. The quench plate was centrifuged at 4000 rpm for 15 min. 40 μL of supernatant was diluted to 200 μL with pure water and analyzed using LC-MS/MS. […]

TYK2 = target: T3, TYK2 (Homo sapiens, UniProt P29597); experiment: Lance Ultra Kinase Assay, recombinant TYK2; format: biochemical; conditions: 5 mM ATP
T3 construct: purchased Carna Biosciences
T3 sequence (P29597 whole entry): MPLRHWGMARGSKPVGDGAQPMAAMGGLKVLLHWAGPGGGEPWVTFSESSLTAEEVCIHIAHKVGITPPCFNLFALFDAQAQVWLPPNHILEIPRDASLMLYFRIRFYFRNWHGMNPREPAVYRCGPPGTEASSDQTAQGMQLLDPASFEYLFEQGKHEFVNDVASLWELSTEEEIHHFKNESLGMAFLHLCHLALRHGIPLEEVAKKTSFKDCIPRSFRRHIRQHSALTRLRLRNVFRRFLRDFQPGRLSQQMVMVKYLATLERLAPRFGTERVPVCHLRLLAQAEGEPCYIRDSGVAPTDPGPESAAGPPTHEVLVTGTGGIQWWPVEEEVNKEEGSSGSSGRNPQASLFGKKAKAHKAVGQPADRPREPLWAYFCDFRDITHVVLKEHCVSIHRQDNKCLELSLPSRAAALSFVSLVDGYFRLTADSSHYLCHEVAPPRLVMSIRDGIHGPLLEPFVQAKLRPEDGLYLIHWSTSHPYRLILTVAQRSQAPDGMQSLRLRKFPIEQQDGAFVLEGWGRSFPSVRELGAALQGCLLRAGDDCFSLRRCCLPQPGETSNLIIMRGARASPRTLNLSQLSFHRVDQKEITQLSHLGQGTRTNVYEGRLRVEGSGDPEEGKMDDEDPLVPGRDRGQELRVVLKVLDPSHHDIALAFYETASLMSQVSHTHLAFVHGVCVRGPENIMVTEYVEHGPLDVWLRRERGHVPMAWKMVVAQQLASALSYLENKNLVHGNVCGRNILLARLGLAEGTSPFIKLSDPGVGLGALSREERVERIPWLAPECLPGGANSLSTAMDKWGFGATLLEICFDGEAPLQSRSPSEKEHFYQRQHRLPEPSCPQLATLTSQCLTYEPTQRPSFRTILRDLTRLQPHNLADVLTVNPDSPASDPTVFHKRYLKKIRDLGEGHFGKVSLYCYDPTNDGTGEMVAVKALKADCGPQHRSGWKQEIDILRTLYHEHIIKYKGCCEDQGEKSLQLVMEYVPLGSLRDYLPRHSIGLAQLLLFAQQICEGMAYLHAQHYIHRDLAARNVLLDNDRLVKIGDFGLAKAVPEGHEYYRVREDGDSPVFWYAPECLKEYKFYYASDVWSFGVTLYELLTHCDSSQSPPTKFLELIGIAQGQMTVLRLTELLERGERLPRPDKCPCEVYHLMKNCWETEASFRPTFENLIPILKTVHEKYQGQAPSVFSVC
Protocol: as §1, §2

JAK2 = target: T4, JAK2 (Homo sapiens, UniProt O60674); experiment: Lance Ultra Kinase Assay, recombinant JAK2; format: biochemical; conditions: 5 mM ATP
T4 construct: purchased Carna Biosciences
T4 sequence (O60674 whole entry): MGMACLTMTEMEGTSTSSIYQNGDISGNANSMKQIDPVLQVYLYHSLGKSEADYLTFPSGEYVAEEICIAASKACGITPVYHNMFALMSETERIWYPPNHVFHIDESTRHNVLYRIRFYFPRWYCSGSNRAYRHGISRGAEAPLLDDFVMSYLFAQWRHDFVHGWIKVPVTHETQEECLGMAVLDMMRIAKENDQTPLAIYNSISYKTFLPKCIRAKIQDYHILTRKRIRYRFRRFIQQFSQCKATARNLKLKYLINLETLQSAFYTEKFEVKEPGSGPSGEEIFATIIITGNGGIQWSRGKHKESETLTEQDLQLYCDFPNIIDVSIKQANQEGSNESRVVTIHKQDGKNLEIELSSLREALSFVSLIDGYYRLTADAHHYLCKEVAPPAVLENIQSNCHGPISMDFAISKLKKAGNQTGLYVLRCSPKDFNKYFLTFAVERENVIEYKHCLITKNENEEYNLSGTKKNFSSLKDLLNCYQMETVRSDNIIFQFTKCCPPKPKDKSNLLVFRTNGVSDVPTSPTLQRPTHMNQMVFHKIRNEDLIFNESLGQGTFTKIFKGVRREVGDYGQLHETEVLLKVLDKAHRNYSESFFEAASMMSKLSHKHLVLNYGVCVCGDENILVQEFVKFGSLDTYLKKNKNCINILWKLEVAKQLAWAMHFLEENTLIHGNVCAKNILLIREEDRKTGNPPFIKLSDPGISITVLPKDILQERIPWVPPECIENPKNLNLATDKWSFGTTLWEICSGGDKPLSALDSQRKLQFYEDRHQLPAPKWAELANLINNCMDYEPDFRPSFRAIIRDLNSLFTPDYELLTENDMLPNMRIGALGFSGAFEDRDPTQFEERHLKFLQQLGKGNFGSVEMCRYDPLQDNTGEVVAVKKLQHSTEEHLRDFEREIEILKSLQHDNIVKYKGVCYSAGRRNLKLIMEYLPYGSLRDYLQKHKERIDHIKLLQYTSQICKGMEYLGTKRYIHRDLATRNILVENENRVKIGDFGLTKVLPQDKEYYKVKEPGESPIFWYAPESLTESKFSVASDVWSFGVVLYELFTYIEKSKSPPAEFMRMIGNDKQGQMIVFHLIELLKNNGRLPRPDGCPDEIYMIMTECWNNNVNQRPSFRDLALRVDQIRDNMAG
Protocol: as §1, §2

[3] = Homo sapiens, THP-1, THP-1 cells

T1 sequence (P23458 whole entry): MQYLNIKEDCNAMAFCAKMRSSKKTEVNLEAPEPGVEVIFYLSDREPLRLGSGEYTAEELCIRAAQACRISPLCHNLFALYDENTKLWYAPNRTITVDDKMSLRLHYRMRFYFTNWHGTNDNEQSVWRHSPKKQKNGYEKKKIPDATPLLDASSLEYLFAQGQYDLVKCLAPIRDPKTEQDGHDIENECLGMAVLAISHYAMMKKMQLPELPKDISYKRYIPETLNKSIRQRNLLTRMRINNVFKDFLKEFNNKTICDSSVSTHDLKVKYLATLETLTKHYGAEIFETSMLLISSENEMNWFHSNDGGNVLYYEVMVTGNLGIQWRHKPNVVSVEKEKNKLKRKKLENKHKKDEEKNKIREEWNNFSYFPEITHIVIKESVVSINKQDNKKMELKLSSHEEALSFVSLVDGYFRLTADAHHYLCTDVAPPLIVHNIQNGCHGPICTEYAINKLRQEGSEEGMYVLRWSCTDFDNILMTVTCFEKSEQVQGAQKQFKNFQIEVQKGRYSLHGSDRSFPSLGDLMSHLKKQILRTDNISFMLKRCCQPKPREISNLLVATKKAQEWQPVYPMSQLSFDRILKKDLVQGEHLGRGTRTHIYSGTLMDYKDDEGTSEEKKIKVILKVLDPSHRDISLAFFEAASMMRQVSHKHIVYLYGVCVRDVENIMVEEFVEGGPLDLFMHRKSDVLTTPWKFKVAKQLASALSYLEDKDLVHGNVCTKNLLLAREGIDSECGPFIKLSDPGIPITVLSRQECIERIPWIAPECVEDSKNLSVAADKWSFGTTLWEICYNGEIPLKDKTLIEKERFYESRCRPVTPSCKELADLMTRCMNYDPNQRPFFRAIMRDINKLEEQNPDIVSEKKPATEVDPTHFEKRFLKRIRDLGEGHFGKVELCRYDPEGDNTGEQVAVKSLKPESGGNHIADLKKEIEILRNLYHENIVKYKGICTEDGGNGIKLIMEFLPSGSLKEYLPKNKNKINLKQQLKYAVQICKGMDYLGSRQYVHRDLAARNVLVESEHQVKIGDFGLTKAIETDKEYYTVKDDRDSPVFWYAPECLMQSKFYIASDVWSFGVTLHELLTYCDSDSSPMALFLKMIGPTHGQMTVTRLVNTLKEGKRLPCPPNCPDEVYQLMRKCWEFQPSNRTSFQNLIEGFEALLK

| SMILES | pIC50 (JAK1) | Rat Hepatocyte CLint [1] | pIC50 (phosphorylation of STAT6; [3]) | pIC50 (JAK3) | microsomal CLint at 1 μM [2] | pIC50 (TYK2) | pIC50 (JAK2) | pIC50 (phosphorylation of STAT6; THP-1 cells) | Human liver microsome CLint ([2]; 1 μM compound) |
| --- | --- | --- | --- | --- | --- | --- | --- | --- | --- |
| COC[C@H](C(=O)Nc1cccc2c(-c3nc(Nc4cnc(C(=O)OC)c(C)c4)ncc3F)c[nH]c12)N1CCN(C)CC1 [Example 57, methyl (R)-5-((5-fluoro-4-(7-(3-methoxy-2-(4-methylpiperazin-1-yl)propanamido)-1H-indol-3-yl)pyrimidin-2-yl)amino)-3-methylpicolinate] | 9.80 | 24.0 μL/min/10^6 cells | 7.80 | < 5.00 | > 300 µL/min/mg | 6.04 | 7.36 | – | – |
| COC[C@H](C(=O)Nc1cccc2c(-c3nc(Nc4cnn(C5CCOC5)c4)ncc3F)c[nH]c12)N1CCN(C)CC1 (single isomer, unassigned; isomer 2) [Example 33] | 9.85 | 6.8 μL/min/10^6 cells | – | < 5.00 | – | 5.66 | 6.96 | 7.95 | 11.1 µL/min/mg |
| COC[C@H](C(=O)Nc1cccc2c(-c3nc(Nc4ccc5c(C)n[nH]c5c4)ncc3F)c[nH]c12)N1CCN(C)CC1 [Example 17, (R)-N-(3-(5-fluoro-2-((3-methyl-1H-indazol-6-yl)amino)pyrimidin-4-yl)-1H-indol-7-yl)-3-methoxy-2-(4-methylpiperazin-1-yl)propanamide] | 9.74 | 4.5 μL/min/10^6 cells | 8.12 | 5.11 | 57.2 µL/min/mg | 5.92 | 7.37 | – | – |
| COC[C@H](C(=O)Nc1cccc2c(-c3nc(Nc4ccc(OCCO)nc4)ncc3F)c[nH]c12)N1CCN(C)CC1 [Example 16, (R)-N-(3-(5-fluoro-2-((6-(2-hydroxyethoxy)pyridin-3-yl)amino)pyrimidin-4-yl)-1H-indol-7-yl)-3-methoxy-2-(4-methylpiperazin-1-yl)propanamide] | 9.44 | 42.1 μL/min/10^6 cells | 8.13 | < 5.00 | 3 µL/min/mg | 5.70 | 6.86 | – | – |
| COC[C@H](C(=O)Nc1cccc2c(-c3nc(Nc4ccc5c(c4)C(=O)OCC5)ncc3F)c[nH]c12)N1CCN(C)CC1 [Example 64, (R)-N-(3-(5-fluoro-2-((1-oxoisochroman-7-yl)amino)pyrimidin-4-yl)-1H-indol-7-yl)-3-methoxy-2-(4-methylpiperazin-1-yl)propanamide] | 9.85 | 4.0 μL/min/10^6 cells | 7.74 | < 5.00 | 21.9 µL/min/mg | 6.29 | 7.66 | – | – |
